Like-named read-outs stand apart in the source and are kept apart here.
Tests used:
[1] = tested on: aggregation of thrombocytes; test: ADP-induced aggregation of thrombocytes after intravenous administration (in vivo); parameters: species or system rabbit
Description: The experiments were carried out on male rabbits of the “Chinchilla” breed having a mass of 2.7±0.3 kg. 18-24 hours prior to the experiment they were deprived of feed while preserving free access to water.
To obtain plasma enriched with thrombocytes, blood was taken from a cut of a marginal vein of the rabbit ear, the sample was stabilized with 3.8% of sodium citrate solution in a ratio of 9:1 and centrifuged at 200 g (1000 rev/min) for 10 minutes. The top supernatant layer enriched with thrombocytes was transferred by an automatic dropper into a silicone test tube and kept at 37° C. The plasma enriched with thrombocytes contained, on the average, […]. If this content exceeded the specified 3×10^8 blood platelets in 1 liter, this sample was diluted to the necessary concentration with plasma deprived of thrombocytes, which was obtained by centrifuging blood at 650 g during 10 minutes.
The measurements of the optical density of the samples were made on two-channel aggregometer of the “Chronolog” Company (USA). A flask containing 490 mkl of plasma rich with thrombocytes was placed in a device, into which a magnetic agitator covered with Teflon was lowered. The index of maximum amplitude of aggregation (MA) in percent of a fall of the plasma optical density under effect of the aggregation inductor was recorded. The control index MA of plasma was compared with the MA of plasma incubated for 3 minutes with different concentrations of the compounds: from 10^−3 to 10^−7 in vitro experiments or with plasma obtained 15, 30, 60 and 120 minutes after intravenous administration of different doses of the compounds in vivo experiments.
The process of aggregation of thrombocytes was recorded with the help of a computer; on the monitor screen the there were depicted curves reflecting changes of the optical density of the plasma enriched which was taken as a standard 100% compared to the optical density of the non-thrombocyte plasma taken for 0% content of thrombocytes.
The antiaggregative capability of compounds 2, 15, 21, 37, according to the invention was tested in experiments in vivo. Introduced to the test animals intravenously were an aggregation inductor ADP at a concentration of 10^−5 M was and then the compounds according to the invention. The doses of the compounds were in a range from 15 to 60 mg/kg.
For leveling the different effects of the compounds in different days due the ambient temperature, humidity and other parameters, 2 animals of each series were taken for experiments every day. Under “series” there is understood a group of 6 animals used for studying one of the doses of the compounds.
The blood for obtaining plasma enriched with thrombocytes was taken from marginal vein of the rabbit ear: in the control group—directly before introducing the tested compounds; in investigated groups—15 minutes after introducing these compounds and then after 30, 60, 120 minutes and so on up to the moment when the effect of suppression of aggregation disappeared.
The quantity of thrombocytes was counted before the experiment and at the end thereof in each plasma sample.

[2] = rat, in vivo
Description: (§1) The experiments were conducted on inbred rats. The experimental animals were selected in groups by a method of random sampling taking into account the body mass as a determining index; 24 males or 24 females for one preparation from compounds 2, 15, 23, 34, 37 investigated in one dose.
(§2) Two doses of preparations used in the experiments: 50 mg/kg and 500 mg/kg. Before the administration, the suppositories were softened by heating in a glass water bath at a temperature of 38-39° C., the soft mass was collected in tuberculin syringe in a volume of 1 ml, a needle with oliva was attached to the syringe, and the preparatory mass was introduced into the rectum of the animal for a depth of 1.5-2.0 cm. The animals of the control group were administered with sterile medical liquid paraffin in a volume corresponding to the volume of the investigated suppository. A complete course of administration of drugs to the animals was two months. A complex of laboratory diagnostic investigations was carried out one month after the beginning of the administration of the preparation to the animal—in a middle of the course (8 animals), two months after ending the course (8 animals) and three months after ending the recovery period of one month (8 animals). The mass of the body of the rats in the first month of administration of the preparation was determined weekly, and then once in two weeks. On the basis of the dynamics of an index of the mass of the animal body, the volume of preparation being administered was corrected taking into account the test dose.

[3] = tested on: synthase of nitrogen oxide (NOC); test: Morphine abstinence model: activity of synthase of nitrogen oxide (radiometric, [3H]L-citrulline); type: in vivo, rats Wistar; details: for Activity of NOC, Hypothalamus, Control + Compound / Activity of NOC, Mesencephalon, Control + Compound: compound alone 20.0 mg/kg intramuscularly; for Activity of NOC, Hypothalamus, Control + Morphine + compound / Activity of NOC, Mesencephalon, Control + Morphine + compound: morphinized rats then compound 20.0 mg/kg intramuscularly
[4] = Chronic toxicity, rectal suppositories: indexes of peripheral blood; details: male rats; for Basophiles / Juveniles: 1 month/2 months (one value given)
Description: as §1, §2

[5] = suppositories 50 mg/kg, 1 month
[6] = suppositories 50 mg/kg, 2 months
[7] = suppositories 500 mg/kg, 1 month
[8] = suppositories 500 mg/kg, 2 months

## Nc1cccc2c(=O)[nH][nH]c(=O)c12.[Na] [Compound 15, sodium salt of 5-amino-benzo[d]-3H-pyridazine-1,4-dione]
[1]; dose 15.0 mg/kg intravenously
  MA, %, After 15 minutes: 42.8 ± 1.8 %
  MA, %, After 30 minutes: 41.8 ± 1.5 %
  MA, %, After 60 minutes: 45.6 ± 1.5 %
  MA, %, After 120 minutes: 48.3 ± 2.3 %
[1]; dose 30.0 mg/kg intravenously
  MA, %, After 15 minutes: 43.2 ± 2.2 %
  MA, %, After 30 minutes: 41.8 ± 1.9 %
  MA, %, After 60 minutes: 37.8 ± 1.8 %
  MA, %, After 120 minutes: 58.1 ± 1.7%
[1]; dose 60.0 mg/kg intravenously
  MA, %, After 15 minutes: 43.1 ± 1.5 %
  MA, %, After 30 minutes: 41.3 ± 1.5 %
  MA, %, After 60 minutes: 44.7 ± 0.8%
  MA, %, After 120 minutes: 47.2 ± 1.6%
[2]; 50 mg/kg
  Bilirubin (index of urine): <5 Mkmol/l
  Glucose (index of urine): <6 mmol/L
  Ketone bodies (index of urine): <1 mmol/L
  Potassium (index of urine): 5.28 ± 1.5 g/L
  Protein (index of urine): 0.71 ± 0.274 g/L
  Sodium (index of urine): 1.2 ± 0.4 g/L
  Urea (index of urine): 413 ± 128 mmol/L
  Urobilinogen (index of urine): <17 Mkmol/l
  pH (index of urine): 6.3 ± 0.4
[2]; 500 mg/kg
  Bilirubin (index of urine): <5 Mkmol/l
  Glucose (index of urine): <6 mmol/L
  Ketone bodies (index of urine): <1 mmol/L
  Potassium (index of urine): 6.13 ± 1.6 g/L
  Protein (index of urine): 0.87 ± 0.24 g/L
  Sodium (index of urine): 0.64 ± 0.4 g/L
  Urea (index of urine): 485 ± 131 mmol/L
  Urobilinogen (index of urine): <17 Mkmol/l
  pH (index of urine): 6.2 ± 0.3
[3]
  Activity of NOC, Hypothalamus, Control + Compound: 5.45 ± 0.24 pmol/min/mg of protein
  Activity of NOC, Mesencephalon, Control + Compound: 2.60 ± 0.29 pmol/min/mg of protein
  Activity of NOC, Hypothalamus, Control + Morphine + compound: 5.26 ± 0.28 pmol/min/mg of protein
  Activity of NOC, Mesencephalon, Control + Morphine + compound: 1.83 ± 0.23 pmol/min/mg of protein

## O=c1[nH]n([C@@H]2O[C@H](CO)[C@@H](O)[C@H]2O)c(=O)c2nc(O)cnc12.[Na].[Na] [Compound 23, disodium salt of 2-hydroxy-7-(β-D-ribofuranosile)pyrazine[2,3-Cl]-6H-pyridazine-5,8-dione]
[4]; [5]
  Average volume of erythrocytes: 82.7 ± 1.6 Mkm^3
  Coagulation, time: 150 ± 15 s
  Eosinophiles: 3.6 ± 0.5%
  Erythrocytes: 5.7 ± 0.1 mln/mm^3
  Haematocrite: 47.7 ± 1.2%
  Hemoglobin: 10.7 ± 0.1 mmol/L
  Leukocyte: 15.5 ± 1.1 thousand/mm^3
  REE: 1.7 ± 0.8 mm/h
  Reticulocytes: 2.7 ± 0.3%
  Stab neutrophil: 1.1 ± 0.5%
  Thrombocytes: 659 ± 18
[4]; suppositories 50 mg/kg
  Basophiles: 0%
  Juveniles: 0%
[4]; [6]
  Average volume of erythrocytes: 77.5 ± 1.7 Mkm^3
  Coagulation, time: 313 ± 17 s
  Eosinophiles: 4.0 ± 0.7%
  Erythrocytes: 6.0 ± 0.2 mln/mm^3
  Haematocrite: 46.5 ± 1.3%
  Hemoglobin: 11.0 ± 0.1 mmol/L
  Leukocyte: 17.6 ± 1.2 thousand/mm^3
  REE: 1.5 ± 0.1 mm/h
  Reticulocytes: 2.8 ± 0.1%
  Stab neutrophil: 1.6 ± 0.2%
  Thrombocytes: 586 ± 28
[4]; [7]
  Average volume of erythrocytes: 83.5 ± 1.7 Mkm^3
  Coagulation, time: 156 ± 11 s
  Eosinophiles: 3.3 ± 0.7%
  Erythrocytes: 5.7 ± 0.2 mln/mm^3
  Haematocrite: 47.9 ± 1.1%
  Hemoglobin: 10.7 ± 0.2 mmol/L
  Leukocyte: 16.4 ± 1.1 thousand/mm^3
  REE: 2.0 ± 0.3 mm/h
  Reticulocytes: 3.1 ± 0.1%
  Stab neutrophil: 1.0 ± 0.3%
  Thrombocytes: 678 ± 18
[4]; suppositories 500 mg/kg
  Basophiles: 0%
  Juveniles: 0%
[4]; [8]
  Average volume of erythrocytes: 82.1 ± 1.4 Mkm^3
  Coagulation, time: 3171 ± 12 s
  Eosinophiles: 3.8 ± 1.3%
  Erythrocytes: 6.4 ± 0.2 mln/mm^3
  Haematocrite: 49.4 ± 1.9%
  Hemoglobin: 12.3 ± 0.3 mmol/L
  Leukocyte: 20.1 ± 1.7 thousand/mm^3
  REE: 1.7 ± 0.3 mm/h
  Reticulocytes: 3.4 ± 0.1%
  Stab neutrophil: 1.6 ± 0.2%
  Thrombocytes: 628 ± 23

## O=c1[nH][nH]c(=O)c2c(Br)ncnc12.[K] [Compound 37, potassium salt of 4-bromine-pyrimido[4,5-D]-6H-pyridazine-5,8-dione]
[1]; dose 15.0 mg/kg intravenously
  MA, %, After 15 minutes: 42.9 ± 1.6 %
  MA, %, After 30 minutes: 41.9 ± 1.6 %
  MA, %, After 60 minutes: 45.9 ± 1.6%
  MA, %, After 120 minutes: 48.7 ± 2.1%
[1]; dose 30.0 mg/kg intravenously
  MA, %, After 15 minutes: 43.5 ± 2.0 %
  MA, %, After 30 minutes: 42.0 ± 1.4 %
  MA, %, After 60 minutes: 41.6 ± 1.4 %
  MA, %, After 120 minutes: 58.4 ± 1.7%
[1]; dose 60.0 mg/kg intravenously
  MA, %, After 15 minutes: 43.4 ± 1.8 %
  MA, %, After 30 minutes: 42.4 ± 0.7 %
  MA, %, After 60 minutes: 46.2 ± 2.0%
  MA, %, After 120 minutes: 47.3 ± 1.7%
[2]; 50 mg/kg
  Bilirubin (index of urine): <5 Mkmol/l
  Glucose (index of urine): <5 mmol/L
  Ketone bodies (index of urine): <1 mmol/L
  Potassium (index of urine): 6.12 ± 1.4 g/L
  Protein (index of urine): 0.70 ± 0.19 g/L
  Sodium (index of urine): 1.4 ± 0.2 g/L
  Urea (index of urine): 427 ± 137 mmol/L
  Urobilinogen (index of urine): <15 Mkmol/l
  pH (index of urine): 6.4 ± 0.4
[2]; 500 mg/kg
  Bilirubin (index of urine): <5 Mkmol/l
  Glucose (index of urine): <5 mmol/L
  Ketone bodies (index of urine): <1 mmol/L
  Potassium (index of urine): 6.44 ± 1.3 g/L
  Protein (index of urine): 0.72 ± 0.14 g/L
  Sodium (index of urine): 0.88 ± 0.4 g/L
  Urea (index of urine): 489 ± 152 mmol/L
  Urobilinogen (index of urine): <15 Mkmol/l
  pH (index of urine): 6.2 ± 0.3
[3]
  Activity of NOC, Hypothalamus, Control + Compound: 5.61 ± 0.22 pmol/min/mg of protein
  Activity of NOC, Mesencephalon, Control + Compound: 2.62 ± 0.27 pmol/min/mg of protein
  Activity of NOC, Hypothalamus, Control + Morphine + compound: 5.59 ± 0.22 pmol/min/mg of protein
  Activity of NOC, Mesencephalon, Control + Morphine + compound: 1.85 ± 0.30 pmol/min/mg of protein

## Nc1cnc2c(=O)n([C@@H]3O[C@H](CO)[C@@H](O)[C@H]3O)[nH]c(=O)c2n1.[Na] [Compound 21, sodium salt of 3-amino-7-(β-D-ribofuranosile)pyrazine[2,3-d]-6H-pyridazine-5,8-dione]
[1]; dose 15.0 mg/kg intravenously
  MA, %, After 15 minutes: 43.5 ± 1.7 %
  MA, %, After 30 minutes: 43.3 ± 1.7 %
  MA, %, After 60 minutes: 46.7 ± 1.5 %
  MA, %, After 120 minutes: 49.1 ± 1.7%
[1]; dose 30.0 mg/kg intravenously
  MA, %, After 15 minutes: 46.7 ± 1.9 %
  MA, %, After 30 minutes: 45.4 ± 1.8 %
  MA, %, After 60 minutes: 45.0 ± 1.9%
  MA, %, After 120 minutes: 60.3 ± 2.1%
[1]; dose 60.0 mg/kg intravenously
  MA, %, After 15 minutes: 45.1 ± 0.9 %
  MA, %, After 30 minutes: 43.2 ± 2.0 %
  MA, %, After 60 minutes: 47.3 ± 1.6%
  MA, %, After 120 minutes: 48.3 ± 1.5%

## O=c1[nH][nH]c(=O)c2nccnc12.[Li] [Compound 25, lithium salt of pyrazine[2,3-d]-6H-pyridazine-5,8-dione]
[3]
  Activity of NOC, Hypothalamus, Control + Compound: 5.88 ± 0.27 pmol/min/mg of protein
  Activity of NOC, Mesencephalon, Control + Compound: 2.65 ± 0.43 pmol/min/mg of protein
  Activity of NOC, Hypothalamus, Control + Morphine + compound: 5.23 ± 0.27 pmol/min/mg of protein
  Activity of NOC, Mesencephalon, Control + Morphine + compound: 1.97 ± 0.27 pmol/min/mg of protein

Source: patent publication US20070166547A1, “Use of a layer consisting of hydrophobic linear, or two-dimensional polycyclic aromatics as a barrier layer or an encapsulation and electric components constructed with a layer of this type and comprising organic polymers” (priority 2003, published 2007)
